Assay results from patent US7588903B2, “Use of isogenic drug-resistant cell lines to determine the sequence of chemotherapeutic drug treatment” (priority 2003, dated 2009).
Where “and” joins values, the source holds several entries; their conditions need not be identical. Equal entries are not always repeated. Where two headings read alike, the source gives them in different places. Each block holds one compound with its values, some of them ahead of it.

Assays:
MCF-7 cells [1] = assay: Clonogenic assay, drug-sensitive parental cells; conditions: for IC50: Homo sapiens
MCF-7TAX cells [2] = assay type: cell-based; conditions: for resistance factor (IC50 for MCF-7TAX cells divided by IC50 for MCF-7 cells): 24 h drug treatment, clonogenic assay
From the text: (§1) Twice weekly, nonadherent (dead) cells were removed by discarding the existing medium and replacing it with fresh, drug-containing medium. […] At the end of the two-week period, all remaining viable cells were released by trypsinization, diluted 10-fold into PBS, and harvested by centrifugation. The cells were resuspended in fresh H-21 medium, with several aliquots removed for storage and future analysis. […] Nonadherent dead cells were again removed as described above and the process repeated until a drug dose was reached where all cells in the population were killed. Cells that grew at the maximally-tolerated drug concentrations were deemed to be “terminally selected”.
(§2) Thus, the concentration of valspodar used in some experiments was increased to 10 μM.
(§3) Briefly, 5 ml of H21 medium with 10% fetal bovine serum was introduced into 12 tissue culture flasks (25 cm^2 area) and each flask seeded with 2.5×10^5 cells. […] Each sample was vortexed vigorously for 10 s to ensure even distribution of cells within the viscous medium. 1.2 ml of each cellular suspension were placed into 6 well plates and incubated for a minimum of one week at 37° C./5% CO2 until large colonies of cells were visible.

MCF-7DOX cells [3] = assay type: cell-based; conditions: for resistance factor (IC50 for MCF-7DOX cells divided by IC50 for MCF-7 cells): 24 h drug treatment, clonogenic assay
From the text: as §1, §2, §3

procaspase-9 [4] = assay: Doxorubicin treatment of PA1 ovarian cell line, procaspase-9 level; assay type: cell-based; conditions: PA1 cells
MCF-7TAX cells [5] = conditions: 2 μM doxorubicin
MCF-7 cells [6] = assay: Selection of MCF-7 cells in increasing drug concentrations (maximally tolerated dose); assay type: cell-based, human; conditions: 3-fold dose steps, terminally selected
Protocol: Twice weekly, nonadherent (dead) cells were removed by discarding the existing medium and replacing it with fresh, drug-containing medium. […] At the end of the two-week period, all remaining viable cells were released by trypsinization, diluted 10-fold into PBS, and harvested by centrifugation. The cells were resuspended in fresh H-21 medium, with several aliquots removed for storage and future analysis. The remaining cells were incubated with drug at a concentration 3-fold higher than the previous dose. Nonadherent dead cells were again removed as described above and the process repeated until a drug dose was reached where all cells in the population were killed. Cells that grew at the maximally-tolerated drug concentrations were deemed to be “terminally selected”. The maximally-tolerated drug doses during the selection process were 0.3 μM and 6.6 nM for doxorubicin and paclitaxel, respectively.

procaspase-9 [7] = assay: Immunoblotting of whole cell extracts of MCF-7 cells after drug treatment; assay type: cell-based, human; conditions: 24 h, 9 nM doxorubicin or 0.56 nM paclitaxel
Protocol: (§4) Extraction of proteins from whole cells was performed using RIPA buffer [1% Nonidet P-40, 0.5% sodium deoxycholate, 0.1% SDS, and 1 Complete™ protease inhibitor tablet (Roche Pharmaceuticals, Baie d'Urfe, QC) in 50 ml of PBS]. Prior to use, the RIPA buffer was supplemented with sodium orthovanadate and phenylmethylsulfonyl fluoride at final concentrations of 1 mM and 0.1 mg/ml, respectively. Cultured cells were grown as a monolayer and allowed to reach 70-90% confluence in 10 cm tissue culture plates. Twenty-four hours prior to extraction, some plates of cells were treated with 9 nM doxorubicin or 0.56 nM paclitaxel. After drug treatment, the medium was removed and the cells rinsed twice with PBS. All further steps were carried out on ice to minimize denaturation/proteolysis of the proteins. Chilled RIPA buffer (0.6 ml) was added to each plate, after which the cells were scraped from the plate using a Teflon tape-coated razor blade, and transferred to a 1.5 ml microfuge tube. An additional 0.3 ml of RIPA buffer was added to the plate and the resultant suspension was combined with the lysate. The sample was then passed repeatedly through a 21 gauge needle to lyse the cells and shear any DNA present. The lysates were then incubated on ice for 30 minutes, after which they were clarified by centrifugation at 15,000 g for 20 minutes at 4° C. The supernatants were then removed, mixed well, and aliquots placed in 0.5 ml microfuge tubes and stored at −80° C.
(§5) Proteins ([…]) from whole cell extracts were loaded into each lane of a 10% SDS-polyacrylamide gel, on duplicate gels. After electrophoresis, one of the gels was stained with Coomassie Brilliant Blue R to confirm that similar amounts of protein were loaded on gels. A second gel was electrophoretically transferred to a nitrocellulose membrane and the membrane incubated for one hour in blocking buffer [TBS buffer (20 mM Tris, 150 mM NaCl, pH 7.5) supplemented with 5% skim milk powder] to occupy all remaining protein-binding sites on the membrane. After blocking, the membranes were incubated for 1.5 hours at room temperature with an antibody to either caspase-3 (Santa Cruz Biotechnology, Santa Cruz, Calif., clone E-8), caspase-7 (Pharmingen Laboratories, San Diego, Calif., clone B94-1) or caspase-9 (Santa Cruz Biotechnology, Santa Cruz, Calif., clone C-17). Both antibodies were diluted 1:500 in blocking buffer containing 0.1% Tween 20. The primary antibody was then discarded and the membrane washed exhaustively with TBST (TBS buffer supplemented with 0.1% Tween 20). […]

procaspase-7 = assay: as above; assay type: cell-based, human; conditions: 24 h drug treatment
Protocol: as §4, §5

MCF-7DOX cells [8] = assay: Cellular doxorubicin uptake by flow cytometry; conditions: 2 μM doxorubicin, steady state
MCF-7DOX cells [9] = assay: [3H]-paclitaxel / [14C]-5-fluorouracil accumulation by liquid scintillation; conditions: 10 nM paclitaxel, 24 hours
[10] = MCF7, read-out: IC50 (uptake concentration near the IC50)
[11] = MCF7, read-out: concentration required to kill 50% of the cells (IC50)

SMILES: O=c1[nH]cc(F)c(=O)[nH]1 [5-fluorouracil]
IC50 (MCF-7 cells [1]; [10]): ~1000 nM
resistance factor (IC50 for MCF-7TAX cells divided by IC50 for MCF-7 cells) (MCF-7TAX cells [2]): 13 fold

SMILES: N.N.[Cl][Pt][Cl] [cisplatin]
resistance factor (IC50 for MCF-7TAX cells divided by IC50 for MCF-7 cells) (MCF-7TAX cells [2]): Very little to no cross-resistance

SMILES: O=P1(N(CCCl)CCCl)NCCCO1 (stereo not shown) [cyclophosphamide]
resistance factor (IC50 for MCF-7TAX cells divided by IC50 for MCF-7 cells) (MCF-7TAX cells [2]): Very little to no cross-resistance

SMILES: CN(Cc1cnc2nc(N)nc(N)c2n1)c1ccc(C(=O)N[C@@H](CCC(=O)O)C(=O)O)cc1 [methotrexate]
resistance factor (IC50 for MCF-7TAX cells divided by IC50 for MCF-7 cells) (MCF-7TAX cells [2]): Very little to no cross-resistance

SMILES: C/C=C/C[C@@H](C)C(=O)[C@H]1C(=O)N[C@@H](C(C)C)C(=O)N(C)CC(=O)N(C)[C@@H](CC(C)C)C(=O)N[C@@H](C(C)C)C(=O)N(C)[C@@H](CC(C)C)C(=O)N[C@@H](C)C(=O)N[C@H](C)C(=O)N(C)[C@@H](CC(C)C)C(=O)N(C)[C@@H](CC(C)C)C(=O)N(C)[C@@H](C(C)C)C(=O)N1C [valspodar]
effect on 5-fluorouracil sensitivity (MCF-7 cells [1]; MCF-7 cells): no effect
maximum amount which could be added without inducing significant cytotoxicity (MCF-7 cells [1]; MCF-7 cells, one hour at 37° C.): Two
effect on cell viability (MCF-7 cells [1]; non-expressing MCF-7 cells, 2 μM valspodar (data not shown)): only a slight effect
concentration tolerated without resulting in cell killing (MCF-7DOX cells [3]; MCF-7DOX cells): up to 10 μM
concentration tolerated without resulting in cell killing (MCF-7TAX cells [2]; MCF-7TAX cells): up to 10 μM

Further lines, with some results ahead:

resistance factor (IC50 for MCF-7DOX cells divided by IC50 for MCF-7 cells) (MCF-7DOX cells [3]): 14,600 fold
resistance factor (IC50 for MCF-7TAX cells divided by IC50 for MCF-7 cells) (MCF-7TAX cells [2]): 46 fold
SMILES: CC(=O)O[C@@]12CO[C@@H]1C[C@H](O)[C@@]1(C)C(=O)[C@H](O)C3=C(C)[C@@H](OC(=O)[C@H](O)[C@@H](NC(=O)OC(C)(C)C)c4ccccc4)C[C@@](O)([C@@H](OC(=O)c4ccccc4)[C@H]21)C3(C)C [docetaxel]

resistance factor (IC50 for MCF-7DOX cells divided by IC50 for MCF-7 cells) (MCF-7DOX cells [3]): 52 fold
SMILES: COc1cccc2c1C(=O)c1c(O)c3c(c(O)c1C2=O)C[C@@](O)(C(=O)CO)C[C@@H]3O[C@H]1C[C@H](N)[C@H](O)[C@H](C)O1 [doxorubicin, Doxorubicin]
IC50 (MCF-7 cells [1]; [11]): 9 nM
effect on procaspase-9 levels (procaspase-9 [4]): decrease in procaspase-9 levels
doxorubicin uptake as percent of uptake in MCF-7 cells (MCF-7TAX cells [5]): 68.6%
maximally-tolerated drug dose during the selection process (MCF-7 cells [6]): 0.3 µM
effect on procaspase-9 levels (procaspase-9 [7]): elevated levels
effect on procaspase-7 levels (procaspase-7): upregulated
reduction of doxorubicin accumulation compared to MCF-7 cells (MCF-7DOX cells [8]): 91.4%

resistance factor (IC50 for MCF-7DOX cells divided by IC50 for MCF-7 cells) (MCF-7DOX cells [3]): 124 fold
resistance factor (IC50 for MCF-7TAX cells divided by IC50 for MCF-7 cells) (MCF-7TAX cells [2]): ~13 fold
SMILES: COc1cccc2c1C(=O)c1c(O)c3c(c(O)c1C2=O)C[C@@](O)(C(=O)CO)C[C@@H]3O[C@H]1C[C@H](N)[C@@H](O)[C@H](C)O1 [epirubicin]

resistance factor (IC50 for MCF-7DOX cells divided by IC50 for MCF-7 cells) (MCF-7DOX cells [3]): 31 fold
resistance factor (IC50 for MCF-7TAX cells divided by IC50 for MCF-7 cells) (MCF-7TAX cells [2]): Very little to no cross-resistance
SMILES: COc1cc([C@@H]2c3cc4c(cc3[C@@H](O[C@@H]3O[C@@H]5CO[C@@H](C)O[C@H]5[C@H](O)[C@H]3O)[C@H]3COC(=O)[C@H]23)OCO4)cc(OC)c1O [etoposide]

resistance factor (IC50 for MCF-7TAX cells divided by IC50 for MCF-7 cells) (MCF-7TAX cells [2]): Very little to no cross-resistance
SMILES: CCc1c2c(nc3ccc(OC(=O)N4CCC(N5CCCCC5)CC4)cc13)-c1cc3c(c(=O)n1C2)COC(=O)[C@]3(O)CC [irinotecan]

resistance factor (IC50 for MCF-7DOX cells divided by IC50 for MCF-7 cells) (MCF-7DOX cells [3]): 4,700 fold and > 4,000 fold
resistance factor (IC50 for MCF-7TAX cells divided by IC50 for MCF-7 cells) (MCF-7TAX cells [2]): 42 fold
SMILES: CC(=O)O[C@H]1C(=O)[C@@]2(C)[C@H]([C@H](OC(=O)c3ccccc3)[C@]3(O)C[C@H](OC(=O)[C@H](O)[C@@H](NC(=O)c4ccccc4)c4ccccc4)C(C)=C1C3(C)C)[C@]1(OC(C)=O)CO[C@@H]1C[C@@H]2O [paclitaxel]
IC50 (MCF-7 cells [1]; [10]): ~10 nM
IC50 (MCF-7 cells [1]; [11]): 0.56 nM
maximally-tolerated drug dose during the selection process (MCF-7 cells [6]): 0.0066 µM
effect on procaspase-9 levels (procaspase-9 [7]): no effect
effect on procaspase-7 levels (procaspase-7): without effect
paclitaxel accumulated as percent of that in MCF-7 cells (MCF-7DOX cells [9]): 2.5%

resistance factor (IC50 for MCF-7DOX cells divided by IC50 for MCF-7 cells) (MCF-7DOX cells [3]): approximately 4600 fold
SMILES: CC[C@]1(O)C[C@@H]2CN(CCc3c([nH]c4ccccc34)[C@@](C(=O)OC)(c3cc4c(cc3OC)N(C)[C@H]3[C@@](O)(C(=O)OC)[C@H](OC(C)=O)[C@]5(CC)C=CCN6CC[C@]43[C@@H]65)C2)C1 [vinblastine, Vinblastine]
